Results: PubChem BioAssay AID1963856 (Molecular Pharmacology Branch, DTP, NCI, 2024)

System: LG0567-F671-PDC KRAS tumor spheroid viability
Assay: Anticancer human tumor LG0567-F671-PDC patient-derived lung adenocarcinoma cell line growth inhibition [KRAS2]
Conditions: spheroids with HUVEC and MSC; for IC50: curve of first compound; for viability, T/C: stronger effect = lower value
Outline: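 KRAS-mutant tumor cells were grown as spheroids with HUVEC endothelial cells and human MSCs as stroma. Targeted agents were tested alone and with KRAS pathway inhibitors. Doses started at or near clinical Cmax, or 10 microM, descending half-log.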

[1] = second compound 0.1 µM, first compound 0.0316 µM
[2] = second compound 0.1 µM, first compound 0.1 µM
[3] = second compound 0.316 µM, first compound 0.0316 µM
[4] = second compound 0.316 µM, first compound 0.1 µM
[5] = second compound 1 µM, first compound 0.0316 µM
[6] = second compound 1 µM, first compound 0.1 µM
[7] = second compound 3.16 µM, first compound 0.0316 µM
[8] = second compound 3.16 µM, first compound 0.1 µM
[9] = second compound 10 µM, first compound 0.0316 µM
[10] = second compound 10 µM, first compound 0.1 µM
[11] = second compound 0.1 µM, first compound 0.316 µM
[12] = second compound 0.1 µM, first compound 1 µM
[13] = second compound 0.1 µM, first compound 3.16 µM
[14] = second compound 0.1 µM, first compound 10 µM
[15] = second compound 0.316 µM, first compound 0.316 µM
[16] = second compound 0.316 µM, first compound 1 µM
[17] = second compound 0.316 µM, first compound 3.16 µM
[18] = second compound 0.316 µM, first compound 10 µM
[19] = second compound 1 µM, first compound 0.316 µM
[20] = second compound 1 µM, first compound 1 µM
[21] = second compound 1 µM, first compound 3.16 µM
[22] = second compound 1 µM, first compound 10 µM
[23] = second compound 3.16 µM, first compound 0.316 µM
[24] = second compound 3.16 µM, first compound 1 µM
[25] = second compound 3.16 µM, first compound 3.16 µM
[26] = second compound 3.16 µM, first compound 10 µM
[27] = second compound 10 µM, first compound 0.316 µM
[28] = second compound 10 µM, first compound 1 µM
[29] = second compound 10 µM, first compound 3.16 µM
[30] = second compound 10 µM, first compound 10 µM
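Also: drug exposure lasted seven days after spheroids formed for three days.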
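For viability, T/C in this document: 100% = DMSO vehicle control viability.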

| Compound | IC50 (second compound 0.1 µM) | IC50 (second compound 0.316 µM) | IC50 (second compound 1 µM) | IC50 (second compound 3.16 µM) | IC50 (second compound 10 µM) | viability, T/C [1] | viability, T/C [2] | viability, T/C [3] | viability, T/C [4] | viability, T/C [5] | viability, T/C [6] | viability, T/C [7] | viability, T/C [8] | viability, T/C [9] | viability, T/C [10] | viability, T/C [11] | viability, T/C [12] | viability, T/C [13] | viability, T/C [14] | viability, T/C [15] | other results |
| --- | --- | --- | --- | --- | --- | --- | --- | --- | --- | --- | --- | --- | --- | --- | --- | --- | --- | --- | --- | --- | --- |
| CC(C)n1nc(-c2ccc3oc(N)nc3c2)c2c(N)ncnc21 + C=CC(=O)N1CCN(c2nc(=O)n(-c3c(C)ccnc3C(C)C)c3nc(-c4c(O)cccc4F)c(F)cc23)C(C)C1 | < 0.000316 µM | < 0.000316 µM | < 0.000316 µM | < 0.000316 µM | < 0.000316 µM | 9.02% | 8.13% | 8.62% | 7.08% | 8.47% | 6.2% | 7.41% | 8.01% | 10.9% | 10.3% |  |  |  |  |  | viability, T/C (second compound 0.1 µM, first compound 0.000316 µM): 21.4%; viability, T/C (second compound 0.1 µM, first compound 0.001 µM): 17.1%; viability, T/C (second compound 0.1 µM, first compound 0.00316 µM): 14.8%; viability, T/C (second compound 0.1 µM, first compound 0.01 µM): 11.4%; viability, T/C (second compound 0.316 µM, first compound 0.000316 µM): 20.6%; viability, T/C (second compound 0.316 µM, first compound 0.001 µM): 20%; viability, T/C (second compound 0.316 µM, first compound 0.00316 µM): 17.2%; viability, T/C (second compound 0.316 µM, first compound 0.01 µM): 11%; viability, T/C (second compound 1 µM, first compound 0.000316 µM): 23.9%; viability, T/C (second compound 1 µM, first compound 0.001 µM): 14.5%; viability, T/C (second compound 1 µM, first compound 0.00316 µM): 14%; viability, T/C (second compound 1 µM, first compound 0.01 µM): 10.8%; viability, T/C (second compound 3.16 µM, first compound 0.000316 µM): 20.2%; viability, T/C (second compound 3.16 µM, first compound 0.001 µM): 15.8%; viability, T/C (second compound 3.16 µM, first compound 0.00316 µM): 12.9%; viability, T/C (second compound 3.16 µM, first compound 0.01 µM): 10.2%; viability, T/C (second compound 10 µM, first compound 0.000316 µM): 20.3%; viability, T/C (second compound 10 µM, first compound 0.001 µM): 16.8%; viability, T/C (second compound 10 µM, first compound 0.00316 µM): 13.4%; viability, T/C (second compound 10 µM, first compound 0.01 µM): 13.1% |
| COc1cc2nccc(Oc3ccc(NC(=O)C4(C(=O)Nc5ccc(F)cc5)CC4)cc3)c2cc1OC + CC1OCC2(CCN(c3cnc(Sc4ccnc(N)c4Cl)c(N)n3)CC2)C1N | < 0.0316 µM | < 0.0316 µM | < 0.0316 µM | < 0.0316 µM | < 0.0316 µM | 54% | 50.4% | 33% | 30.9% | 25.7% | 22.8% | 19.6% | 15.2% | 13.1% | 9.16% | 33.3% | 31.5% | 30.3% | 88.4% | 26.6% | viability, T/C [16]: 20.9%; viability, T/C [17]: 13.3%; viability, T/C [18]: 69.7%; viability, T/C [19]: 18.4%; viability, T/C [20]: 13.8%; viability, T/C [21]: 9.19%; viability, T/C [22]: 43.3%; viability, T/C [23]: 8.47%; viability, T/C [24]: 6.57%; viability, T/C [25]: 6.28%; viability, T/C [26]: 25.8%; viability, T/C [27]: 8.96%; viability, T/C [28]: 6.33%; viability, T/C [29]: 3.72%; viability, T/C [30]: 23.3% |
| Cn1nccc1Nc1nccc(-c2cc3c(s2)C(C)(C)N(CCN2CCOCC2)C3=O)n1 + COc1cc2nc(C)nc(NC(C)c3cc(N)cc(C(F)(F)F)c3)c2cc1OC1CCOC1 | 0.495 µM | 0.456 µM | 0.506 µM | 0.528 µM | 0.609 µM | 79.7% | 67% | 80.5% | 70.7% | 68.2% | 68% | 71.1% | 65.6% | 74.6% | 72.2% | 55.3% | 43.2% | 31.3% | 26.6% | 53.9% | viability, T/C [16]: 42.1%; viability, T/C [17]: 25.3%; viability, T/C [18]: 26.1%; viability, T/C [19]: 54.8%; viability, T/C [20]: 41.5%; viability, T/C [21]: 30.3%; viability, T/C [22]: 25.5%; viability, T/C [23]: 56.5%; viability, T/C [24]: 42.9%; viability, T/C [25]: 30.8%; viability, T/C [26]: 30.2%; viability, T/C [27]: 55.8%; viability, T/C [28]: 45.4%; viability, T/C [29]: 33.4%; viability, T/C [30]: 29.5% |
